Key:
genetically obese mice = assay: carcass lipid of genetically obese mice after daily oral dosing for 28 days (anti-obesity); type: in vivo, mouse (genetically obese)
Experimental: (i) The compounds and a comparison compound (salbutamol) were dosed daily in water or carboxymethylcellulose suspension to genetically obese mice by oral gavage for 28 days. At the end of that time the carcass composition was determined.

blood glucose = assay: hypoglycaemic activity: reduction in area under blood glucose curve after glucose load in fasted mice; type: in vivo, female CFLP mice; details: for inhibition in vivo at 5 mg/kg / inhibition in vivo at 20 mg/kg: Mus musculus, po, 2 h, 30 min before glucose load 1 g/kg sc, 2 hour period, versus control mice; for inhibition in vivo at 5 mg/kg: 5 mg/kg po; for anti-hyperglycaemic activity (in words): general statement, no dose given; for inhibition in vivo at 20 mg/kg: 20 mg/kg po
Experimental: Female CFLP mice, weighing approximately 25 g, were fasted for 24 hours prior to the study. The compounds under study were dosed orally (20 mg and 5 mg/kg) to each of 8 mice. 30 minutes later a blood sample ([…]) was obtained from the tail for the analysis of blood glucose. Immediately after taking this blood sample, each mouse was given a glucose load (1 g/kg body weight sub-cutaneously). Blood samples were then obtained from each mouse at 30 minute intervals for 120 minutes.
Compounds that produced a significant (P<0.05) reduction of blood glucose, compared with control mice given water, at any time interval were considered active. The area under the blood glucose curve over the 2 hour period after giving the glucose load was calculated for each compound and compared with the value for control animals. Thus a compound would give a 100% reduction in the area under the blood glucose curve if the blood glucose was maintained at the same level as in untreated fasted animals. Reduction in the glucose curve of more than 100% indicate that a compound, in spite of being given a glucose load, maintained blood glucose levels below that found in control fasted mice.

| Compound | inhibition in vivo at 5 mg/kg (blood glucose) [%] | anti-hyperglycaemic activity (in words) (blood glucose) | further results |
| --- | --- | --- | --- |
| COC(=O)c1ccc(C[C@@H](C)NCC(O)c2ccc(O)c(CO)c2)cc1 (stereo partly drawn) [Example 35, N-(1-(R)-2-[4-Carbomethoxyphenyl]-1-methylethyl)-2-hydroxy-2-(4-hydroxy-3-hydroxymethylphenyl)ethanamine] |  |  | anti-obesity activity (in words) (genetically obese mice; general statement, no dose given): particularly worthy of mention in view of their anti-obesity activity |
| COC(=O)c1ccc(CC(C)NCC(O)c2ccc(O)c(CO)c2)c(F)c1 (stereo not drawn) [Example 9, N-[2-(4-Carbomethoxy-2-fluorophenyl)-1-methylethyl]-2-hydroxy-2-(4-hydroxy-3-hydroxymethylphenyl) ethanamine] | 47 |  |  |
| COC(=O)c1ccc(CCNCC(O)c2ccccc2Cl)cc1 (stereo not drawn) [Example 27, N-(2-[4-Carbomethoxyphenyl]ethyl)-2-(2-chlorophyenyl)-2-hydroxyethanamine] | 38 |  |  |
| COC(=O)c1ccc(OCC(C)NCC(O)c2ccc(O)c(CO)c2)cc1 (stereo not drawn) [Example 8, N-[2-(4-Carbomethoxyphenoxy)-1-methylethyl]-2-hydroxy-2-(4-hydroxy-3-hydroxymethylphenyl)ethanamine] |  |  | g - lipid per mouse, Treated (genetically obese mice; 21 mg/kg po, daily for 28 days, control 21.9 ± 0.5): 19.6 ± 0.4 g |
| COC(=O)c1ccc(CC(C)(C)NCC(O)c2ccc(O)c(CO)c2)cc1 (stereo not drawn) [Example 31, N-(2-[4-Carbomethoxyphenyl]-1,1-dimethylethyl)-2-hydroxy-2-(4-hydroxy-3-hydroxymethylphenyl) ethanamine] | 139 | particularly worthy of mention in view of their anti-hyperglycaemic activity |  |
| COC(=O)c1ccc(CCNCC(O)c2ccccc2)cc1 (stereo not drawn) [Example 25, N-(2-[4-Carbomethoxyphenyl]ethyl)-2-hydroxy-2-phenylethanamine] | 179 | particularly worthy of mention in view of their anti-hyperglycaemic activity |  |
| COC(=O)c1ccc(C[C@H](C)NCC(O)c2ccc(O)c(CO)c2)cc1 (stereo partly drawn) [Example 36, N-(1-(S)-2-[4-Carbomethoxyphenyl]-1-methylethyl)-2-hydroxy-2-(4-hydroxy-3-hydroxymethylphenyl)ethanamine] | 79 | particularly worthy of mention in view of their anti-hyperglycaemic activity |  |
| COC(=O)c1ccc(CC(C)NCC(O)c2ccc(O)c(O)c2)cc1 (stereo not drawn) [Example 19, N-(2-[4-Carbomethoxyphenyl]-1-methylethyl)-2-(3,4-dihydroxyphenyl)-2-hydroxyethanamine] |  | particularly worthy of mention in view of their anti-hyperglycaemic activity |  |
| COC(=O)c1ccc(CC(C)NCC(O)c2ccc(O)c(NC(C)=O)c2)cc1 (stereo not drawn) [Example 38, N-(2-[4-Carbomethoxyphenyl]-1-methylethyl)-2-(3-acetamido-4-hydroxyphenyl)-2-hydroxyethanamine] | 59 |  |  |
| COC(=O)c1ccc(CC(C)NCC(O)c2ccc(O)c(N)c2)cc1 (stereo not drawn) [Example 34] |  |  | inhibition in vivo at 20 mg/kg (blood glucose): 61% |
| COC(=O)c1ccc(CC(C)NCC(O)c2ccc(O)cc2Cl)cc1 (stereo not drawn) [Example 33, N-(2-[4-Carbomethoxyphenyl]-1-methylethyl)-2-(2-chloro-4-hydroxyphenyl)-2-hydroxyethanamine] | 88 | particularly worthy of mention in view of their anti-hyperglycaemic activity |  |
| COC(=O)c1ccc(CC(C)NCC(O)c2ccc(O)c(CS(C)(=O)=O)c2)cc1 (stereo not drawn) [Example 39, N-(2-[4-Carbomethoxyphenyl]-1-methylethyl)-2-(4-hydroxy-3-methylsulphonylmethylphenyl)-2-hydroxyethanamine] | 83 | particularly worthy of mention in view of their anti-hyperglycaemic activity |  |
| COC(=O)c1ccc(C(C)NCC(O)c2ccc(O)c(CO)c2)cc1 (stereo not drawn) [Example 18] |  |  | inhibition in vivo at 20 mg/kg (blood glucose): 25% |
